According to the Kinase Knowledgebase extract (Sharma et al. 2016):

Target: PIK3CA (human) (UniProt P42336)
Test: Assessment of PIK3CA Kinase Activity

PIK3CA (human), sequence (P42336 whole entry, looked up): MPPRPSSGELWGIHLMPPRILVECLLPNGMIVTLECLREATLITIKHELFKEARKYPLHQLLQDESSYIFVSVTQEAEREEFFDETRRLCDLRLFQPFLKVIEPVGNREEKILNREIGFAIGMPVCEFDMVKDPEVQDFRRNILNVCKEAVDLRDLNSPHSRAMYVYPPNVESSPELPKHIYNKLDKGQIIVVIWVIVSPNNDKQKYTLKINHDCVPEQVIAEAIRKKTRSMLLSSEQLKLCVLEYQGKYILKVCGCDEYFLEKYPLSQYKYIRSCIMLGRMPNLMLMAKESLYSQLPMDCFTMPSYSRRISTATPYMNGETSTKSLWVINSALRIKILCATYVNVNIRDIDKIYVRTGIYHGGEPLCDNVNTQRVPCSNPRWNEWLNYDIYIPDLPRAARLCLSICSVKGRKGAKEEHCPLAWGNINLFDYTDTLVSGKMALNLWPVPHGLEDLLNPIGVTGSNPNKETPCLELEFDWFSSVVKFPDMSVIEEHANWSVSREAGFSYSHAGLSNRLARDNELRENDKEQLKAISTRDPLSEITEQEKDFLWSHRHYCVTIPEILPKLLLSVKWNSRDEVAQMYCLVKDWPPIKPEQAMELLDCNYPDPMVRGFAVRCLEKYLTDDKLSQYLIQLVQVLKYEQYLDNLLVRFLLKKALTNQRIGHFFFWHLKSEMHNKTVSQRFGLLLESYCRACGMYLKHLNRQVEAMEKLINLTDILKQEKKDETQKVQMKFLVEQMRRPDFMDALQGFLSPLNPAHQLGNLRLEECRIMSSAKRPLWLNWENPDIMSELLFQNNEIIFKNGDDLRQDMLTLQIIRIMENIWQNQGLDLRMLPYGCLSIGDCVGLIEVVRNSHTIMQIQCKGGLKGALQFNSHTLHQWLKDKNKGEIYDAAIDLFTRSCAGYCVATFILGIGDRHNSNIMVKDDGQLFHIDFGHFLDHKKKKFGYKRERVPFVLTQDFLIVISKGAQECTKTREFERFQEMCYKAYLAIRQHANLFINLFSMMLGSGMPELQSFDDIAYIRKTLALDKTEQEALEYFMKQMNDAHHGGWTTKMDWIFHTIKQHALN

IC50, < 1 µM:
CC(C)n1ncnc1-c1cn2c(n1)-c1ccc(N3CCN(CC(=O)N(C)C)CC3)nc1OCC2
CC(C)n1ncnc1-c1cn2c(n1)-c1ccc(N3CCN(C)CC3)nc1OCC2
C[C@H](Oc1ccc2c(c1)OCCn1cc(-c3ncnn3C(C)(C)C)nc1-2)C(N)=O
CC(C)n1ncnc1-c1cc2n(n1)-c1cc(C3CN(Cc4ccncc4)C3)ccc1OCC2
NC(=O)[C@@H]1CCCN1c1ccc2c(c1)OCCn1cc(-c3ncnn3CC(F)(F)F)nc1-2
NC(=O)[C@@H]1CCCN1c1cc2c(cn1)-c1nc(-c3ncnn3C3CCCCC3)cn1CCO2
CC(C)n1ncnc1-c1cn2c(n1)-c1ccc(N3CC(F)(F)C[C@H]3C(N)=O)cc1OCC2
Cc1nc(-c2cn3c(n2)-c2cnc(N4C[C@H](F)C[C@H]4C(N)=O)cc2OCC3)n(C(C)C)n1
CC(C)n1ncc(C#N)c1-c1cn2c(n1)-c1ccc(C(N)=O)cc1OCC2
Cc1n[nH]c(-c2cn3c(n2)-c2ccc(-c4cnn(CCO)c4)cc2OCC3)n1
CC(C)n1nc(C2CC2)nc1-c1cn2c(n1)-c1ccc(Br)cc1OCC2
CC(C)n1ncnc1-c1cn2c(n1)-c1ccc(N3C[C@@H](F)C[C@H]3C(N)=O)cc1OCC2
CNc1nc(-c2cn3c(n2)-c2ccccc2OCC3)n(C(C)C)n1
CC(C)n1ncnc1-c1cn2c(n1)-c1ccc(-c3cn(CC(C)(C)O)cn3)cc1OCC2
CC(C)n1ncnc1-c1cn2c(n1)-c1ccc(C3CCN(CC(N)=O)CC3)cc1OCC2
CC(C)n1ncnc1-c1cn2c(n1)-c1cnc(N3C[C@H](C#N)C[C@H]3C(N)=O)cc1OCC2
CC(C)n1ncnc1-c1cn2c(n1)-c1cnc(N[C@H](C)C(N)=O)cc1OCC2
CC(C)n1ncnc1-c1cn2c(n1)-c1cc(C(=O)N3CCS(=O)(=O)CC3)ccc1OCC2
CC(C)NC(=O)CN1CCN(c2cc3c(cn2)-c2nc(-c4ncnn4C(C)C)cn2CCO3)CC1
Cc1nc(-c2cn3c(n2)-c2ccc(OC4COC4)cc2OCC3)n(C(C)C)n1
CC(C)n1ncnc1-c1cn2c(n1)-c1cnc(N3C[C@H](O)C[C@H]3C(N)=O)cc1OCC2
Nc1nc(-c2cn3c(n2)-c2cc(F)ccc2OCC3)n(CC(F)(F)F)n1
CC(C)n1ncnc1-c1cn2c(n1)-c1cnc(O[C@@H](C)C(N)=O)cc1OCC2
COCCN1CCC(c2ccc3c(c2)OCCn2cc(-c4ncnn4C(C)C)nc2-3)CC1
CC(C)n1ncnc1-c1cn2c(n1)-c1ccc(O[C@@H](C)C(=O)O)cc1OCC2
Cc1nc(-c2cn3c(n2)-c2ccc(N)cc2OCC3)n(C(C)C)n1
COc1ccc2c(c1)OCCn1cc(-c3ncnn3C(C)C)nc1-2
CC(C)n1ncnc1-c1cn2c(n1)-c1ccc(N3CCC[C@H]3C(N)=O)cc1OCC2
CC(C)n1ncnc1-c1cn2c(n1)-c1cc(-c3ccc[nH]c3=O)ncc1OCC2
OCCn1cc(-c2ccc3c(c2)OCCn2cc(-c4ncnn4CC(F)(F)F)nc2-3)cn1
CC(C)n1ncnc1-c1cn2c(n1)-c1cnc(N3CCCC3)cc1OCC2
CC(C)n1ncnc1-c1cn2c(n1)-c1cc(NC3CNC3)ncc1OCC2
Cc1nc(-c2cn3c(n2)-c2ccc(OCC(F)(F)F)cc2OCC3)n(C(C)C)n1
Cc1nc(-c2ccc3c(c2)OCCn2cc(-c4ncnn4C(C)C)nc2-3)cn1C
Cc1nc(-c2cn3c(n2)-c2ccc(-c4cncnc4)cc2OCC3)n(C(C)C)n1
CC(C)n1ncnc1-c1cn2c(n1)-c1ccc(C(=O)NC(C)(C)CO)cc1OCC2
CC(C)n1ncnc1-c1cc2n(n1)-c1cc(C3CN(CC(N)=O)C3)ccc1OCC2
Cc1nc(-c2cn3c(n2)-c2ccc(-c4cnc(N(C)C)nc4)cc2OCC3)n(C(C)C)n1
CCOC(=O)C(C)Cn1cc(-c2ccc3c(c2)OCCn2cc(-c4nc(C)nn4C(C)C)nc2-3)cn1 (centres undefined)
CC(C)n1ncnc1-c1cn2c(n1)-c1ccc(-c3cn(C)c(CC(C)(C)O)n3)cc1OCC2
CC(C)n1ncnc1-c1cn2c(n1)-c1ccc(OC3COC3)cc1OCC2
CC(C)n1ncnc1-c1cc2n(n1)-c1cc(C(=O)NC3CNC3)ccc1OCC2
CC(C)n1ncnc1-c1cn2c(n1)-c1cnc(N3CC[C@H](O)[C@H]3C(N)=O)cc1OCC2
CNC(=O)c1ccc2c(c1)OCCn1cc(-c3ncnn3-c3ccc(F)cc3F)nc1-2
CC(C)n1ncnc1-c1cn2c(n1)-c1ccc(-c3cn(CCO)cn3)cc1OCC2
CC(C)n1nccc1-c1cn2c(n1)-c1ccc(CNC(N)=O)cc1OCC2
CC(C)n1ncnc1-c1cc2n(n1)-c1cc(C3CN(S(C)(=O)=O)C3)ccc1OCC2
CCc1ccccc1-c1cn2c(n1)-c1ccc(C(=O)OC)cc1OCC2
COC(=O)c1ccc2c(c1)OCCn1cc(-c3cccc(C(C)C)c3)nc1-2
CC(C)n1ncnc1-c1cn2c(n1)-c1cnc(N3CCC[C@@]3(C)C(N)=O)cc1OCC2
C[C@H](Nc1ccc2c(c1)OCCn1cc(-c3ncnn3CC(F)(F)F)nc1-2)C(N)=O
Cc1nc(-c2cn3c(n2)-c2cnc(N4C[C@H](O)C[C@H]4C(N)=O)cc2OCC3)n(C(C)C)n1
NC(=O)CN1CC(c2ccc3c(c2)OCCc2cn(-c4ncnn4-c4ccc(F)cc4F)nc2-3)C1
CC(C)n1nc(CO)nc1-c1cn2c(n1)-c1cnc(N3CC(F)(F)C3)cc1OCC2
CS(=O)(=O)CCN1CCC(c2ccc3c(c2)-n2nc(-c4ncnn4CC(F)(F)F)cc2CCO3)CC1
CC(C)n1ncnc1-c1cn2c(n1)-c1cnc(N3CC[C@@H](O)[C@H]3C(N)=O)cc1OCC2
CC(C)n1ncnc1-n1cc2c(n1)-c1ccc(C3CN(CC(N)=O)C3)cc1OCC2
CC(C)n1ncnc1-c1cn2c(n1)-c1ccc(N3CCC[C@@H]3C(N)=O)cc1OCC2
COC(=O)C(C)Cn1cc(-c2ccc3c(c2)OCCn2cc(-c4nc(C)nn4C(C)C)nc2-3)cn1 (centres undefined)
CC(C)n1nc(N)nc1-c1cn2c(n1)-c1cc(-c3ccc(Cl)cc3)ccc1OCC2
CC(C)n1ncnc1-c1cn2c(n1)-c1ccc(OC3CCC3)cc1OCC2
CC(C)n1ncnc1-c1cn2c(n1)-c1ccc([C@H]3CCNC[C@@H]3O)cc1OCC2
CN(C)c1cc2c(cn1)-c1nc(-c3nc(CO)nn3CC(F)(F)F)cn1CCO2
CC(C)n1ncnc1-c1cn2c(n1)-c1ccc(-c3cncn3C3CCCCO3)cc1OCC2 (centres undefined)
CC(C)n1ncnc1-n1cc2c(n1)-c1cc(C(=O)NCCO)ccc1OCC2
COc1cc2c(cn1)-c1nc(-c3ncnn3C(C)C)cn1CCO2
Cc1nc(-c2cn3c(n2)-c2cnc(N)cc2OCC3)n(C(C)C)n1
CC[C@@H](Oc1ccc2c(c1)OCCn1cc(-c3ncnn3CC(F)(F)F)nc1-2)C(N)=O
CC(C)n1ncnc1-c1cn2c(n1)-c1cc(N3CCNC(=O)C3)ncc1OCC2
CO[C@H]1CCN(c2cc3c(cn2)-c2nc(-c4ncnn4C(C)C)cn2CCO3)[C@@H]1C(N)=O
CC(C)N(CCO)C(=O)c1cn2c(n1)-c1ccc(C3CCN(CC(=O)N(C)C)CC3)cc1OCC2
CC(C)(O)CN1CCC(c2ccc3c(c2)-c2nn(-c4ncnn4-c4ccc(F)cc4F)cc2CCO3)CC1
Cc1nc(-c2cn3c(n2)-c2ccc(C4CCN(C(C)(C)C(N)=O)CC4)cc2OCC3)n(C(C)C)n1
CN(C)c1cc2c(cn1)-c1nc(-c3ncnn3-c3ccccc3Cl)cn1CCO2
